Laboratory results from ChEMBL document CHEMBL5532720, “A Potent Solution for Tumor Growth and Angiogenesis Suppression via an ELR+CXCL-CXCR1/2 Pathway Inhibitor” (ACS Med Chem Lett, 2024).
≈ marks a conversion by molar mass, not a printed value. Calls of active or inactive are those of the source. The calls are words filed in the database; no cut-off is given here.

Key:
786-0 [1] = assay: Antiproliferative activity against human 786-0 cells incubated for 48 hrs by XTT assay; format: functional, cell-based; details: 786-0, 48 h
[2] = Antiproliferative activity against human Sunitinib-resistant 786-R cells incubated for 48 hrs by XTT assay; format: functional, cell-based
[3] = Genotoxicity in Salmonella typhimurium TA98 upto 100 uM in absence of S9 fraction by Ames test; format: toxicity; details: salmonella enterica subsp. enterica serovar typhimurium, s9, 100 µM
[4] = Genotoxicity in Salmonella typhimurium TA100 upto 100 uM in presence of S9 fraction by Ames test; format: toxicity, subcellular; details: salmonella enterica subsp. enterica serovar typhimurium, s9, 100 µM
A498 [5] = assay: Inhibition of CXCL1 secretion in human A498 cells at 1 to 2.5 uM incubated for 48 hrs by ELISA; format: functional, cell-based; details: dose 1-2.5 µM
A498 [6] = assay: Inhibition of CXCL5 secretion in human A498 cells at 1 to 2.5 uM incubated for 48 hrs by ELISA; format: functional, cell-based; details: dose 1-2.5 µM
A498 [7] = assay: Effect on VEGFA production in human A498 cells at 1 to 2.5 uM incubated for 48 hrs by ELISA; format: functional, cell-based; details: dose 1-2.5 µM
A498 [8] = assay: Downregulation of CXCL5 mRNA expression in human A498 cells at 1 to 2.5 uM incubated for 48 hrs by qPCR analysis; format: functional, cell-based; details: dose 1-2.5 µM
[9] = biological target: Calcium/calmodulin-dependent protein kinase type II subunit beta (Homo sapiens) (UniProt Q13554); assay: Inhibition of CAMK2B (unknown origin) at 10 uM in presence of ATP at Km concentration
Calcium/calmodulin-dependent protein kinase type II subunit beta (Homo sapiens), sequence (Q13554 whole entry): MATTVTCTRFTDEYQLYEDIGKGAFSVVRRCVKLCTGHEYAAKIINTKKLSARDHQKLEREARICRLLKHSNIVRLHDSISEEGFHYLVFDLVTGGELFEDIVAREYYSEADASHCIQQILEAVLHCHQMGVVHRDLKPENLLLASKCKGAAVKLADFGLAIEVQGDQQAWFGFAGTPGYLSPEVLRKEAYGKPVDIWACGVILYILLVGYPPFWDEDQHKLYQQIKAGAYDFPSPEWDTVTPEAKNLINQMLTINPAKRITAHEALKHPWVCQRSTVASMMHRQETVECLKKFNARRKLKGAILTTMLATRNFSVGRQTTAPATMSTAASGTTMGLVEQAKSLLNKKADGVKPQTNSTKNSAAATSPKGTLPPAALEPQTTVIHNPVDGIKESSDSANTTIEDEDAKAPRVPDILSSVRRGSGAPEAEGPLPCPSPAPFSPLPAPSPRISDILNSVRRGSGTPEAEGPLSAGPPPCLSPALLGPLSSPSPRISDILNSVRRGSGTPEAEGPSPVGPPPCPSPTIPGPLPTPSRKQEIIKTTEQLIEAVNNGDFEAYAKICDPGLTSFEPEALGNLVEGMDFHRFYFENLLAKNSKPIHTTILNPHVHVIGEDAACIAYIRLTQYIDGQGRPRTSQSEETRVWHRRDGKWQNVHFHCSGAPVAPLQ

[10] = biological target: CDK7/Cyclin H/MNAT1 (Homo sapiens) (UniProt P51946+P50613+P51948); assay: Inhibition of CDK7/cyclin H/MNAT1 (unknown origin) at 10 uM in presence of ATP at Km concentration; format: protein-complex assay
[11] = biological target: Eukaryotic elongation factor 2 kinase (Homo sapiens) (UniProt O00418); assay: Inhibition of EEF2K (unknown origin) at 10 uM in presence of ATP at Km concentration
Eukaryotic elongation factor 2 kinase (Homo sapiens), sequence (O00418 whole entry): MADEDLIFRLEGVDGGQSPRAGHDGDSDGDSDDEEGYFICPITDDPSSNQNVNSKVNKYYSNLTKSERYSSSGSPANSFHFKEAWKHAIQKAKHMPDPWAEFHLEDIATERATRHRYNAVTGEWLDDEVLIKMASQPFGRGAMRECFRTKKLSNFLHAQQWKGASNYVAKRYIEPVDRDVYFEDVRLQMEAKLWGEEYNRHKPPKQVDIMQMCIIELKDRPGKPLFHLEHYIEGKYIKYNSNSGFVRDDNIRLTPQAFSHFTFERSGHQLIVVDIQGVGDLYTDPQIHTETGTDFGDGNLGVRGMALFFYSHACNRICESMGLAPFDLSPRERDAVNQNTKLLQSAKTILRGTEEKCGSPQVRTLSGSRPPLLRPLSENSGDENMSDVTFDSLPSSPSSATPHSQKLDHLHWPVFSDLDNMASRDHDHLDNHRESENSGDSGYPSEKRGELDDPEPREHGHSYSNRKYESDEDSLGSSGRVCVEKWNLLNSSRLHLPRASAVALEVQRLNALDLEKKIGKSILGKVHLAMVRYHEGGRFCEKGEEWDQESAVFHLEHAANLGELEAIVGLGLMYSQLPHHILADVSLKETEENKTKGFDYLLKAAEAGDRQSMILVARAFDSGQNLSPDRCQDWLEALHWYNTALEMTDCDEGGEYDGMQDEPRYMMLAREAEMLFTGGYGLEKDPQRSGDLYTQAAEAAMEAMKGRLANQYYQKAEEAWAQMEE

[12] = biological target: Ephrin type-A receptor 5 (Homo sapiens) (UniProt P54756); assay: Inhibition of EPHA5 (unknown origin) at 10 uM in presence of ATP at Km concentration
[13] = biological target: Glycogen synthase kinase-3 beta (Homo sapiens) (UniProt P49841); assay: Inhibition of GSK3B (unknown origin) at 10 uM in presence of ATP at Km concentration
Glycogen synthase kinase-3 beta (Homo sapiens), sequence (P49841 whole entry, looked up): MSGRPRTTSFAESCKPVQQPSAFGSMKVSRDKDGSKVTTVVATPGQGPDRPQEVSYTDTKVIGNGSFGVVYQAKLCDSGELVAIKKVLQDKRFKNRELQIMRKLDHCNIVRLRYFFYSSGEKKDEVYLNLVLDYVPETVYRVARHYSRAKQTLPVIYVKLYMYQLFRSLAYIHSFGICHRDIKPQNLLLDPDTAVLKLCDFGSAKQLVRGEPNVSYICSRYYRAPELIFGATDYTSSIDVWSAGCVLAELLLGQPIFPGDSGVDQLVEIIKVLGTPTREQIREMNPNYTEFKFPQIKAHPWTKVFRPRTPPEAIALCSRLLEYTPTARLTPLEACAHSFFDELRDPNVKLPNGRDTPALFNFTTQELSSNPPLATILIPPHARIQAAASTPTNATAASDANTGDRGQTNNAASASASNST

[14] = biological target: Tyrosine-protein kinase JAK1 (Homo sapiens) (UniProt P23458); assay: Inhibition of JAK1 (unknown origin) at 10 uM in presence of ATP at Km concentration
Tyrosine-protein kinase JAK1 (Homo sapiens), sequence (P23458 whole entry): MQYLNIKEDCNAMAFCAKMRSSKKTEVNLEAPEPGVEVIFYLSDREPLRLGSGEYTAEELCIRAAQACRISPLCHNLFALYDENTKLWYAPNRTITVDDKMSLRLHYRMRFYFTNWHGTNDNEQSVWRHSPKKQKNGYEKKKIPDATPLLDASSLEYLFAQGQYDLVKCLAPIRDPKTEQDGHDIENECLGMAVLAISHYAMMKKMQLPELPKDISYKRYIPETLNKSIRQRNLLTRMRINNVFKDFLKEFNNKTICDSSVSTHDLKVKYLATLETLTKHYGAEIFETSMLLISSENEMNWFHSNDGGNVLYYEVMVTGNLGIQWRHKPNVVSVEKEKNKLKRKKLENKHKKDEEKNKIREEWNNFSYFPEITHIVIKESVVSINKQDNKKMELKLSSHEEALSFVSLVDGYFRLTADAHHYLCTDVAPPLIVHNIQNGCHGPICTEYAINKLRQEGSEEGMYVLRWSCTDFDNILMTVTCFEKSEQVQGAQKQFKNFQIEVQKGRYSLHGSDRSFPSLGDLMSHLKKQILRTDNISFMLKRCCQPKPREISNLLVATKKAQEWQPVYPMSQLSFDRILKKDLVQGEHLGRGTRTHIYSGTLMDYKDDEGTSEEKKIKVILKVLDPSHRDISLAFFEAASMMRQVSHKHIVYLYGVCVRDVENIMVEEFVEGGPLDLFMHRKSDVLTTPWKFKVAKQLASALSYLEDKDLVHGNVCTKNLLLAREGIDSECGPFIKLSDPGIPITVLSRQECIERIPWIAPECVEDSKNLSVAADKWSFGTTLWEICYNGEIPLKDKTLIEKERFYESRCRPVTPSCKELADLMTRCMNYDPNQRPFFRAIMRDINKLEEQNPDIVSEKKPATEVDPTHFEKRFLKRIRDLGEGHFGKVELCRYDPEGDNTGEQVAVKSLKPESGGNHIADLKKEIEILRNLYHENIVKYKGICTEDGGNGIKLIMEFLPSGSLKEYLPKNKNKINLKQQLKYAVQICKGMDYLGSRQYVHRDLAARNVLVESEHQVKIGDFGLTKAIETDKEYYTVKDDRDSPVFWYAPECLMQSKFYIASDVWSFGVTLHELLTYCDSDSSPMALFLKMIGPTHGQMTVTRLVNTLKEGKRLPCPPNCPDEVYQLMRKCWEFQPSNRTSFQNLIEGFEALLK

[15] = biological target: Mitogen-activated protein kinase kinase kinase 11 (Homo sapiens) (UniProt Q16584); assay: Inhibition of MAP3K11 (unknown origin) at 10 uM in presence of ATP at Km concentration
[16] = biological target: Mitogen-activated protein kinase kinase kinase 3 (Homo sapiens) (UniProt Q99759); assay: Inhibition of MAP3K3 (unknown origin) at 10 uM in presence of ATP at Km concentration
[17] = biological target: Mitogen-activated protein kinase kinase kinase kinase 3 (Homo sapiens) (UniProt Q8IVH8); assay: Inhibition of MAP4K3 (unknown origin) at 10 uM in presence of ATP at Km concentration
[18] = biological target: Mitogen-activated protein kinase 9 (Homo sapiens) (UniProt P45984); assay: Inhibition of MAPK9 (unknown origin) at 10 uM in presence of ATP at Km concentration
Mitogen-activated protein kinase 9 (Homo sapiens), sequence (P45984 whole entry, looked up): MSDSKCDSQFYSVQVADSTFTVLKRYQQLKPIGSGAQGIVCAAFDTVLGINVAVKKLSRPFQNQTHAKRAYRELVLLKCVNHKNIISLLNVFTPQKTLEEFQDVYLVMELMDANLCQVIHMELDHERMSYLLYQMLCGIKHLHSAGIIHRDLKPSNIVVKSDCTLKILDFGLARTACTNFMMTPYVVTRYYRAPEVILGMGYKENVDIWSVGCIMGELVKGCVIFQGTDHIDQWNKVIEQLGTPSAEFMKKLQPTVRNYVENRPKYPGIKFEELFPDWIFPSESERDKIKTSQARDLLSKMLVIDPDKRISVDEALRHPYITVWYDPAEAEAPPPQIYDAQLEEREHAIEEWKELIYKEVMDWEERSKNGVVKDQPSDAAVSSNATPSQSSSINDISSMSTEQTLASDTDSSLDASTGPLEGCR

[19] = biological target: Inactive tyrosine-protein kinase PEAK1 (Homo sapiens) (UniProt Q9H792); assay: Inhibition of PEAK1 (unknown origin) at 10 uM in presence of ATP at Km concentration
[20] = biological target: Serine/threonine-protein kinase PLK1 (Homo sapiens) (UniProt P53350); assay: Inhibition of PLK1 (unknown origin) at 10 uM in presence of ATP at Km concentration
Serine/threonine-protein kinase PLK1 (Homo sapiens), sequence (P53350 whole entry): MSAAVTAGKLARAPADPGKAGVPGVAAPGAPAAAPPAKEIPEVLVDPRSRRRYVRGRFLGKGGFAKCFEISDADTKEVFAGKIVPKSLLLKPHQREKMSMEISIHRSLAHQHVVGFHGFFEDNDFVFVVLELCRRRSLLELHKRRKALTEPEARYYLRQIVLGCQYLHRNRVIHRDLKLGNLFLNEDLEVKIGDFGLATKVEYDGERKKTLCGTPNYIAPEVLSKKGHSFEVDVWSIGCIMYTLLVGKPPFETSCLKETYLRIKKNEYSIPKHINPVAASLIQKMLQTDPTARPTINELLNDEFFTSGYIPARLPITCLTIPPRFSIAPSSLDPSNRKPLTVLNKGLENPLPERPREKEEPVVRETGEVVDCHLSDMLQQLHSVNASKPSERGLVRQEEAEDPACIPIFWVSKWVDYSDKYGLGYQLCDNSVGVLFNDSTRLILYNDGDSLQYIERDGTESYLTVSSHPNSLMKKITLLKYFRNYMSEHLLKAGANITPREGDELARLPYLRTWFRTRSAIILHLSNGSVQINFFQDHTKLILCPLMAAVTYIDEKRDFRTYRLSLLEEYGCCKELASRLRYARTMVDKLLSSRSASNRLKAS

[21] = biological target: Receptor-interacting serine/threonine-protein kinase 2 (Homo sapiens) (UniProt O43353); assay: Inhibition of RIPK2 (unknown origin) at 10 uM in presence of ATP at Km concentration
[22] = biological target: TGF-beta receptor type-2 (Homo sapiens) (UniProt P37173); assay: Inhibition of TGFBR2 (unknown origin) at 10 uM in presence of ATP at Km concentration
TGF-beta receptor type-2 (Homo sapiens), sequence (P37173 whole entry): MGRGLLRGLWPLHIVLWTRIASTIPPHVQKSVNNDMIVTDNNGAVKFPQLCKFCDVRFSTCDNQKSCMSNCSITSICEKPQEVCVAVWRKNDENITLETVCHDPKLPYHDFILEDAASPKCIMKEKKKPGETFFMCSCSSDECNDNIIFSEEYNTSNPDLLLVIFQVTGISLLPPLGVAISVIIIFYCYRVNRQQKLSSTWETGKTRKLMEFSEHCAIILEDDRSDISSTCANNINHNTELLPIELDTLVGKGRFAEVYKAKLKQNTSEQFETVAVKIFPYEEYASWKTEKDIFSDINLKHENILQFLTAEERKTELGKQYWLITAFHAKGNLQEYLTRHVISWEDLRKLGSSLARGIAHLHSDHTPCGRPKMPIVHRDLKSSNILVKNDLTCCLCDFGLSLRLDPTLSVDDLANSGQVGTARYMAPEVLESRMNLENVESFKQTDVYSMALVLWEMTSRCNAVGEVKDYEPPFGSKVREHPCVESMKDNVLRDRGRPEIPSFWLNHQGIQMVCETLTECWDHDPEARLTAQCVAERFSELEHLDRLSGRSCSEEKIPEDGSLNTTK

[23] = biological target: Serine/threonine-protein kinase tousled-like 2 (Homo sapiens) (UniProt Q86UE8); assay: Inhibition of TLK2 (unknown origin) at 10 uM in presence of ATP at Km concentration
[24] = biological target: Tyrosine-protein kinase Yes (Homo sapiens) (UniProt P07947); assay: Inhibition of YES1 (unknown origin) at 10 uM in presence of ATP at Km concentration
A498 [25] = assay: Antimetastatic activity against human A498 cells labeled with vybrant DiD cell-labeling solution xenografted in zebrafish embryo at 1 uM incubated for 72 hrs by fluorescence microscopic imaging analysis; format: functional, cell-based
[26] = Stability of compound at pH 12 measured after 24 hrs; format: physicochemical; details: buffer, pH 12, 24 h
[27] = Aqueous solubility of compound in SGF at pH 2; format: ADME
[28] = Protein binding in mouse plasma; format: ADME, cell-free; details: read-out: PPB (converted)
[29] = Protein binding in human plasma; format: ADME, cell-free; details: read-out: PPB (converted)
[30] = Stability in mouse plasma assessed as compound remaining measured after 120 mins; format: ADME, cell-free; details: read-out: Stability
[31] = Stability in mouse microsomes assessed as half-life; format: ADME, Microsome
[32] = Stability in mouse microsomes assessed as compound remaining measured after 1 hrs; format: ADME, Microsome; details: read-out: Stability
[33] = Stability in human microsomes assessed as compound remaining measured after 1 hrs; format: ADME, Microsome; details: read-out: Stability
[34] = Stability in human microsomes assessed as intrinsic clearance; format: ADME, Microsome
[35] = Stability in mouse hepatocytes assessed as half-life; format: ADME, cell-based, Hepatocyte
[36] = Cmax in NOD SCID mouse at 200 mg/kg, po; format: ADME, organism-based; details: in vivo
[37] = Tmax in NOD SCID mouse at 50 mg/kg, po; format: ADME, organism-based; details: in vivo
[38] = Half-life in NOD SCID mouse at 50 mg/kg, po; format: ADME, organism-based; details: in vivo
[39] = Half-life in NOD SCID mouse at 200 mg/kg, po; format: ADME, organism-based; details: in vivo
[40] = AUC (0 to infinity) in NOD SCID mouse at 100 mg/kg, po; format: ADME, organism-based; details: in vivo
[41] = AUC (0 to infinity) in NOD SCID mouse at 200 mg/kg, po; format: ADME, organism-based; details: in vivo
[42] = Oral bioavailability in NOD SCID mouse at 100 mg/kg; format: ADME, organism-based; details: in vivo
786-0 [43] = assay: Antitumor activity against human 786-0 cells xenografted in athymic nude mouse assessed as tumor growth inhibition at 100 mg/kg, po administered twice daily via gavage for 28 days relative to control; format: functional; details: 786-0, 672 h, time 28 day, read-out: TGI
[44] = Toxicity in athymic nude mouse xenografted with human 786-0 cells assessed as effect on food consumption at 100 mg/kg, po administered twice daily via gavage for 28 days; format: organism-based; details: in vivo, 672 h, time 28 day

O=C(Nc1cc(Cl)cc(Cl)c1)Nc1nc2ccc([N+](=O)[O-])cc2s1
IC50 (786-0 [1]): 2500 nM
IC50 [2]: 3000 nM
Activity [3]: Non-Toxic
Activity [4]: Non-Toxic
inhibition (A498 [5]): Active
inhibition (A498 [6]): Active
Activity (A498 [7]): inactive
Activity (A498 [8]): Active
inhibition [9]: inactive
inhibition [10]: inactive
inhibition [11]: inactive
inhibition [12]: inactive
inhibition [13]: inactive
inhibition [14]: inactive
inhibition [15]: inactive
inhibition [16]: inactive
inhibition [17]: inactive
inhibition [18]: inactive
inhibition [19]: inactive
inhibition [20]: inactive
inhibition [21]: inactive
inhibition [22]: inactive
inhibition [23]: inactive
inhibition [24]: inactive
Activity (A498 [25]): Active
Stability [26]: Stable
solubility [27]: 3.4 µM (≈ 1.3 µg/mL)
fraction unbound [28]: 0.004
fraction unbound [29]: 0.004
remaining at 2 h [30]: 101%
half-life [31]: > 1 h
remaining at 1 h [32]: 76%
remaining at 1 h [33]: 71%
microsomal CLint [34]: < 116 µL/min/mg
half-life [35]: 0.352 h
Cmax [36]: 5.2 µM
Tmax [37]: 1.5 h
half-life [38]: 1.8 h
half-life [39]: 2.7 h
AUC(0-inf) [40]: 14200 ng·h/mL
AUC(0-inf) [41]: 19300 ng·h/mL
bioavailability [42]: 33%
inhibition in vivo at 100 mg/kg (786-0 [43]): 87%
Activity [44]: Non-Toxic
